As usually defined, the EC50 is the concentration at which the effect is half-maximal.

Consider two molecules from PMC12715762, “Discovery of VU6052254: A Novel, Potent M1 Positive Allosteric Modulator” (ACS Chemical Neuroscience, 2025).

One data set has as its system hM2-5. In words: muscarinic selectivity calcium mobilization (human M2-5). It is filed as cell-based. As for the experimental part: Procedures for Biological Experiments
Calcium mobilization assays:
All functional cell-based assays were performed in stable Chinese Hamster Ovary (CHO) cell lines constitutively expressing human M5 or human M1 receptors. For full muscarinic selectivity, CHO cells expressing human M3, human M2 plus Gqi5 or human M4 plus Gqi5 were used. Cells were plated at 15,000 cells per 20 µL per well in black 384-well, TC-treated, clear-bottomed plates (Greiner) in Ham’s F12 medium supplemented with 10% FBS and 20 mM HEPES. Cells were incubated overnight at 37 °C under 5% CO2. […] The compound plate, cell plate, and plates containing EC20 and EC80 acetylcholine concentrations were placed in a Hamamatsu FDSS 6000 or 7000 kinetic imaging plate reader equipped to measure Ex480/Em540 fluorescence. […] After 2 seconds of collecting baseline fluorescence, 20 µL of the compound solutions were added to the cell plate. […] The fluorescence signal was collected for a total of 300 seconds. […] Data were imported and analyzed in Dotmatics Informatics software. by normalizing all data in the individual kinetic traces to the initial fluorescence read. The magnitude of each agonist addition was then determined and normalized to the average maximum response. […] The IC50 determined using the EC80 of acetylcholine is the value reported. […]
In general terms: Calcium assays in cells follow changes in intracellular calcium, usually with a dye or a luminescent sensor.

Data set [1] is described as follows: predicted hepatic clearance, hepatic microsomes (rat). The class given is in vitro ADME. Conditions: rat (r). As for the experimental part:
(§1) After a 5 min preincubation, the reaction was initiated by the addition of NADPH (1 mM). At selected time intervals (0, 3, 7, 15, 25, and 45 min), aliquots were taken and subsequently placed into a 96-well plate containing cold acetonitrile with internal standard (50 ng/mL carbamazepine). Plates were then centrifuged at 3000 rcf (4 °C) for 10 min, and the supernatant was transferred to a separate 96-well plate and diluted 1:1 with water for LC/MS/MS analysis. The in vitro half-life ( 1/2, min, Eq. 1), intrinsic clearance (CLint, mL/min/kg, Eq. 2), and subsequent predicted hepatic clearance (CLhep, mL/min/kg, Eq. 3) was determined employing the […]
(§2) where k represents the slope from linear regression analysis of the natural log percent remaining of a test compound as a function of incubation time […]
(§3) (2) CLint = in vitroT x mg microsomes x gram liver x kg body wt ascale-up factors: of 20 (human) or 45 (rat) […]
(§4) where Qh (hepatic blood flow, mL/min/kg) is 21 (human) or 70 (rat).
(§5) LC/MS/MS Bioanalysis of Samples from Plasma Protein Binding and Intrinsic Clearance […]
(§6) Samples were analyzed on a Thermo Electron TSQ Quantum Ultra triple quad mass spectrometer (San Jose, CA) via electrospray ionization (ESI) with two Themo Electron Accella pumps (San Jose, CA), and a Leap Technologies CTC PAL autosampler (Carrboro, NC). […]

Data set [2] can be described thus: predicted hepatic clearance, hepatic microsomes (human). It is filed as in vitro ADME. Conditions: human (h). As for the experimental part: as §1, §2, §3, §4, §5, §6
Data set [3] can be described thus: predicted hepatic clearance (dog). The class given is in vitro ADME. Conditions: dog (d). On the procedure: as §1, §2, §3, §4, §5, §6
Data set [4] in a line: predicted hepatic clearance (cyno). It is filed as in vitro ADME. The following applies: cyno (c). As for the experimental part: as §1, §2, §3, §4, §5, §6
The target of a further data set is T1, mM1 (Mus musculus, UniProt P12657).
T1 construct: expressed in transfected cells
T1 sequence (P12657 1-460): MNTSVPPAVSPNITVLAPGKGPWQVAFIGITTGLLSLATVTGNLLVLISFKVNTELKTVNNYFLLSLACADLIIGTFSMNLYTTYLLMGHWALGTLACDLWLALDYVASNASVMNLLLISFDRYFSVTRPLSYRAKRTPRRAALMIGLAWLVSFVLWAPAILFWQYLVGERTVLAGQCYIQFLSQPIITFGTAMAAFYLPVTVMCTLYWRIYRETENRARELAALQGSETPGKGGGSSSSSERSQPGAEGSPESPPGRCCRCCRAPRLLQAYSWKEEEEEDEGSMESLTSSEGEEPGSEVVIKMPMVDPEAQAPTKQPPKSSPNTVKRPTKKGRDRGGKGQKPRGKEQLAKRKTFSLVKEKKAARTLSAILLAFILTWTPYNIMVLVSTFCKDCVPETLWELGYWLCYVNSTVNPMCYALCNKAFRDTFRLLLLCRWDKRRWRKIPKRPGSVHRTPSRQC
The data set can be described thus: M1 PAM calcium mobilization assay (mouse). It is filed as cell-based. The following applies: mouse M1, n = 1.

Some results are limits rather than exact numbers.

As for `Cn1cc2c(-c3cc(F)c(CN4Cc5ncccc5C4=O)c(F)c3)cccc2n1` [compound 1, reference compound], the values for the EC50 in the data set with hM2-5 and at mM1 were over 30 µM and 0.728 µM, respectively. Moreover, the “Predicted CLhep” value is on record as 5.7 mL/min/kg in data set [1], 1.3 mL/min/kg in data set [2], 5.5 mL/min/kg in data set [3] and 5.6 mL/min/kg in data set [4]. The “mM1 PAM, percentage in brackets (AChmax)” value at mM1 was found to be 56%.

On to `Cn1cc2c(-c3cc(F)c(CN4Cc5ncccc5C4=O)c(F)c3)ccc(C(C)(C)O)c2n1` [compound 7], for which the results for the EC50 in the data set on hM2-5 and on mM1 were over 30 µM and 0.08 µM, respectively. The “Predicted CLhep” value in data set [1] is listed as 35.5 mL/min/kg; in data set [2] it was 12.8 mL/min/kg; in data set [3] it was 8.0 mL/min/kg; in data set [4], 17.7 mL/min/kg. At mM1, the “mM1 PAM, percentage in brackets (AChmax)” value turned out to be 63%.
